Source: patent US8987500B2, “4-biphenyl-substituted pyrazolidin-3,5-dione derivatives” (Bayer CropScience AG, priority 2003, dated 2015)

Columns and labels:
Type in all cases: in vivo
[1] = test system: greenhouse red spider mite (Tetranychus urticae); test: Tetranychus test (OP-resistant/spray treatment), Example G; settings: Tetranychus urticae (OP-resistant), bean leaf discs, spray treatment
Protocol: Tetranychus Test (OP-Resistant/Spray Treatment)
(§1) To produce a suitable preparation of active compound, 1 part by weight of active compound is mixed with the stated amounts of solvents and emulsifier, and the concentrate is diluted with emulsifier-containing water to the desired concentration.
Discs of bean leaves (Phaseolus vulgaris) which are infested by all stages of the greenhouse red spider mite (Tetranychus urticae) are sprayed with a preparation of active compound of the desired concentration.
After the desired period of time, the activity in % is determined 100% means that all spider mites have been killed; 0% means that none of the spider mites have been killed.

[2] = test system: larvae of the mustard beetle (Phaedon cochleariae); test: Phaedon test (spray treatment), Example E; settings: Table E, 500 g/ha active compound
Protocol: (§2) Phaedon Test (Spray Treatment) [table] To produce a suitable preparation of active compound, 1 part by weight of active compound is mixed with the stated amounts of solvents and emulsifier, and the concentrate is diluted with emulsifier-containing water to the desired concentration. Discs of Chinese cabbage (Brassica pekinensis) are sprayed with a preparation of active compound of the desired concentration and, after they have dried, populated with larvae of the mustard beetle (Phaedon cochleariae). After the desired period of time, the activity in % is determined 100% means that all beetle larvae have been killed; 0% means that none of the beetle larvae have been killed.

[3] = test system: green peach aphid (Myzus persicae); test: Myzus test (spray treatment), Example D; settings: Table D, 500 g/ha active compound
Protocol: Myzus Test (Spray Treatment)
as §1
Discs of Chinese cabbage (Brassica pekinensi), which are infested by all stages of the green peach aphid (Myzus persicae) are sprayed with a preparation of active compound of the desired concentration.
After the desired period of time, the activity in % is determined 100% means that all aphids have been killed; 0% means that none of the aphids have been killed.

[4] = test system: caterpillars of the army worm (Spodoptera frugiperda); test: Spodoptera frugiperda test (spray treatment), Example F; settings: maize leaf discs
Protocol: as §2, with “Spodoptera frugiperda” for “Phaedon”, “maize leaves (Zea mays)” for “Chinese cabbage (Brassica pekinensis)”, “caterpillars” for “larvae”, “army worm (Spodoptera frugiperda).” for “mustard beetle (Phaedon cochleariae).”, “caterpillars” for “beetle larvae”

Cc1ccc(-c2ccc(C)c(-c3c(OC(=O)C(C)(C)C)n4n(c3=O)CCCC4)c2)cc1 [Ex. I-1-b-9]
Kill rate in % after 5d ([1]; 500 g/ha): 100%

Cc1ccc(-c2cccc(Cl)c2Cl)cc1-c1c(OC(=O)C(C)(C)C)n2n(c1=O)CCCC2 [Ex. I-1-b-10]
Kill rate in % after 5d ([1]; 500 g/ha): 90%

Cc1ccc(-c2ccc(Cl)c(Cl)c2)cc1-c1c(OC(=O)C(C)(C)C)n2n(c1=O)CCCC2 [Ex. I-1-b-13]
Kill rate in % after 7d [2]: 100%

Cc1ccc(-c2cc(Cl)cc(Cl)c2)cc1-c1c(OC(=O)C(C)(C)C)n2n(c1=O)CCCC2 [Ex. I-1-b-14]
Kill rate in % after 5d [3]: 100%

Cc1ccc(-c2ccc(F)cc2F)cc1-c1c(OC(=O)C(C)(C)C)n2n(c1=O)CCCC2 [Ex. I-1-b-15]
Kill rate in % after 7d ([4]; 500 g/ha): 100%

Cc1ccc(-c2cc(F)ccc2F)cc1-c1c(OC(=O)C(C)(C)C)n2n(c1=O)CCCC2 [Ex. I-1-b-16]
Kill rate in % after 7d [2]: 100%

Cc1ccc(-c2cccc([N+](=O)[O-])c2)cc1-c1c(OC(=O)C(C)(C)C)n2n(c1=O)CCCC2 [Ex. I-1-b-26]
Kill rate in % after 5d [3]: 100%

Cc1ccc(-c2ccc(OC(F)(F)F)cc2)cc1-c1c(OC(=O)C(C)(C)C)n2n(c1=O)CCCC2 [Ex. I-1-b-27]
Kill rate in % after 7d [2]: 100%

Cc1ccc(-c2ccc(Oc3ccccc3)cc2)cc1-c1c(OC(=O)C(C)(C)C)n2n(c1=O)CCCC2 [Ex. I-1-b-28]
Kill rate in % after 5d ([1]; 500 g/ha): 100%

Cc1ccc(-c2ccc(Cl)cc2)cc1-c1c(OC(=O)C(C)C)n2n(c1=O)CCCC2 [Ex. I-1-b-32]
Kill rate in % after 7d ([4]; 100 g/ha): 100%

Cc1cc(C)c(-c2c(OC(=O)C(C)(C)C)n3n(c2=O)CCCC3)c(C)c1-c1ccc(F)cc1 [Ex. I-1-b-34]
Kill rate in % after 5d ([1]; 500 g/ha): 90%

CCOC(=O)Oc1c(-c2cc(-c3ccccc3C)ccc2C)c(=O)n2n1CCCC2 [Ex. I-1-c-7]
Kill rate in % after 5d ([1]; 500 g/ha): 100%

CCOC(=O)Oc1c(-c2cc(-c3ccc(C)cc3)ccc2C)c(=O)n2n1CCCC2 [Ex. I-1-c-9]
Kill rate in % after 7d [2]: 100%

CCOC(=O)Oc1c(-c2cc(-c3ccc(Cl)cc3Cl)ccc2C)c(=O)n2n1CCCC2 [Ex. I-1-c-11]
Kill rate in % after 5d ([1]; 500 g/ha): 100%

CCOC(=O)Oc1c(-c2cc(-c3cc(Cl)ccc3Cl)ccc2C)c(=O)n2n1CCCC2 [Ex. I-1-c-12]
Kill rate in % after 5d ([1]; 500 g/ha): 100%

CCOC(=O)Oc1c(-c2cc(-c3ccc(Cl)c(Cl)c3)ccc2C)c(=O)n2n1CCCC2 [Ex. I-1-c-13]
Kill rate in % after 7d ([4]; 500 g/ha): 83%

CCOC(=O)Oc1c(-c2cc(-c3cc(Cl)cc(Cl)c3)ccc2C)c(=O)n2n1CCCC2 [Ex. I-1-c-14]
Kill rate in % after 7d [2]: 100%

CCOC(=O)Oc1c(-c2cc(-c3cc(F)ccc3F)ccc2C)c(=O)n2n1CCCC2 [Ex. I-1-c-16]
Kill rate in % after 5d ([1]; 500 g/ha): 100%

CCOC(=O)Oc1c(-c2cc(-c3ccc(F)c(Cl)c3)ccc2C)c(=O)n2n1CCCC2 [Ex. I-1-c-17]
Kill rate in % after 5d ([1]; 500 g/ha): 100%
Kill rate in % after 7d ([4]; 500 g/ha): 83%

CCOC(=O)Oc1c(-c2cc(-c3cccc(C(F)(F)F)c3)ccc2C)c(=O)n2n1CCCC2 [Ex. I-1-c-18]
Kill rate in % after 7d ([4]; 500 g/ha): 100%

Cc1ccc(-c2cccc(Cl)c2)cc1-c1c(OC(=O)C(C)(C)C)n2n(c1=O)CCOCC2 [Ex. I-2-b-2]
Kill rate in % after 7d ([4]; 500 g/ha): 100%

Cc1ccc(-c2ccc(Cl)cc2)cc1-c1c(OC(=O)C(C)(C)C)n2n(c1=O)CCOCC2 [Ex. I-2-b-3]
Kill rate in % after 7d ([4]; 500 g/ha): 83%

Cc1ccc(-c2cccc(F)c2)cc1-c1c(OC(=O)C(C)(C)C)n2n(c1=O)CCOCC2 [Ex. I-2-b-5]
Kill rate in % after 7d ([4]; 500 g/ha): 100%

Cc1ccc(-c2ccc(F)cc2)cc1-c1c(OC(=O)C(C)(C)C)n2n(c1=O)CCOCC2 [Ex. I-2-b-6]
Kill rate in % after 5d ([1]; 100 g/ha): 90%

Cc1ccc(-c2cccc(Cl)c2Cl)cc1-c1c(OC(=O)C(C)(C)C)n2n(c1=O)CCOCC2 [Ex. I-2-b-10]
Kill rate in % after 5d ([1]; 500 g/ha): 100%

Cc1ccc(-c2ccc(F)c(Cl)c2)cc1-c1c(OC(=O)C(C)(C)C)n2n(c1=O)CCOCC2 [Ex. I-2-b-17]
Kill rate in % after 7d [2]: 100%

Cc1ccc(-c2cccc(C(F)(F)F)c2)cc1-c1c(OC(=O)C(C)(C)C)n2n(c1=O)CCOCC2 [Ex. I-2-b-19]
Kill rate in % after 7d [2]: 100%

Cc1ccc(-c2ccc(C(F)(F)F)cc2)cc1-c1c(OC(=O)C(C)(C)C)n2n(c1=O)CCOCC2 [Ex. I-2-b-20]
Kill rate in % after 7d ([4]; 500 g/ha): 100%

Cc1cc(C)c(-c2c(OC(=O)C(C)(C)C)n3n(c2=O)CCOCC3)c(C)c1-c1ccc(F)cc1 [Ex. I-2-b-32]
Kill rate in % after 7d [2]: 100%

CCOC(=O)Oc1c(-c2cc(-c3cccc(Cl)c3)ccc2C)c(=O)n2n1CCOCC2 [Ex. I-2-c-2]
Kill rate in % after 7d ([4]; 500 g/ha): 83%

CCOC(=O)Oc1c(-c2cc(-c3ccc(Cl)cc3)ccc2C)c(=O)n2n1CCOCC2 [Ex. I-2-c-3]
Kill rate in % after 7d ([4]; 500 g/ha): 100%

CCOC(=O)Oc1c(-c2cc(-c3ccccc3F)ccc2C)c(=O)n2n1CCOCC2 [Ex. I-2-c-4]
Kill rate in % after 7d [2]: 100%

CCOC(=O)Oc1c(-c2cc(-c3cccc(F)c3)ccc2C)c(=O)n2n1CCOCC2 [Ex. I-2-c-5]
Kill rate in % after 7d ([4]; 500 g/ha): 100%

CCOC(=O)Oc1c(-c2cc(-c3ccccc3C)ccc2C)c(=O)n2n1CCOCC2 [Ex. I-2-c-7]
Kill rate in % after 7d [2]: 100%

CCOC(=O)Oc1c(-c2cc(-c3ccc(C)cc3)ccc2C)c(=O)n2n1CCOCC2 [Ex. I-2-c-9]
Kill rate in % after 7d [2]: 100%

CCOC(=O)Oc1c(-c2cc(-c3cccc(Cl)c3Cl)ccc2C)c(=O)n2n1CCOCC2 [Ex. I-2-c-10]
Kill rate in % after 5d ([1]; 500 g/ha): 100%

CCOC(=O)Oc1c(-c2cc(-c3ccc(Cl)cc3Cl)ccc2C)c(=O)n2n1CCOCC2 [Ex. I-2-c-11]
Kill rate in % after 7d [2]: 100%

CCOC(=O)Oc1c(-c2cc(-c3cc(Cl)ccc3Cl)ccc2C)c(=O)n2n1CCOCC2 [Ex. I-2-c-12]
Kill rate in % after 7d [2]: 100%

CCOC(=O)Oc1c(-c2cc(-c3ccc(Cl)c(Cl)c3)ccc2C)c(=O)n2n1CCOCC2 [Ex. I-2-c-13]
Kill rate in % after 7d ([4]; 500 g/ha): 100%

CCOC(=O)Oc1c(-c2cc(-c3cc(Cl)cc(Cl)c3)ccc2C)c(=O)n2n1CCOCC2 [Ex. I-2-c-14]
Kill rate in % after 7d [2]: 100%

CCOC(=O)Oc1c(-c2cc(-c3ccc(F)cc3F)ccc2C)c(=O)n2n1CCOCC2 [Ex. I-2-c-15]
Kill rate in % after 7d [2]: 100%

CCOC(=O)Oc1c(-c2cc(-c3ccc(F)c(Cl)c3)ccc2C)c(=O)n2n1CCOCC2 [Ex. I-2-c-17]
Kill rate in % after 7d [2]: 100%

CCOC(=O)Oc1c(-c2cc(-c3cccc(C(F)(F)F)c3)ccc2C)c(=O)n2n1CCOCC2 [Ex. I-2-c-19]
Kill rate in % after 7d [2]: 100%

CCOC(=O)Oc1c(-c2cc(-c3ccc(C(F)(F)F)cc3)ccc2C)c(=O)n2n1CCOCC2 [Ex. I-2-c-20]
Kill rate in % after 7d ([4]; 500 g/ha): 100%

CCOC(=O)Oc1c(-c2cc(-c3ccc(OC)cc3)ccc2C)c(=O)n2n1CCOCC2 [Ex. I-2-c-23]
Kill rate in % after 5d ([1]; 500 g/ha): 100%

CCOC(=O)Oc1c(-c2cc(-c3cccc([N+](=O)[O-])c3)ccc2C)c(=O)n2n1CCOCC2 [Ex. I-2-c-26]
Kill rate in % after 5d ([1]; 100 g/ha): 90%

Cc1ccc(-c2cccc(Cl)c2Cl)cc1-c1c(O)n2n(c1=O)CCCC2 [Example I-1-a-10]
Kill rate in % after 5d ([1]; 500 g/ha): 90%

Cc1ccc(-c2ccc(Cl)cc2Cl)cc1-c1c(O)n2n(c1=O)CCCC2 [Example I-1-a-11]
Kill rate in % after 5d ([1]; 500 g/ha): 100%

Cc1ccc(-c2ccc(Cl)c(Cl)c2)cc1-c1c(O)n2n(c1=O)CCCC2 [Example I-1-a-13]
Kill rate in % after 7d [2]: 100%

Cc1ccc(-c2ccc(F)c(Cl)c2)cc1-c1c(O)n2n(c1=O)CCCC2 [Example I-1-a-17]
Kill rate in % after 5d ([1]; 500 g/ha): 90%

Cc1ccc(-c2cccc(Cl)c2)cc1-c1c(O)n2n(c1=O)CCOCC2 [Example I-2-a-2]
Kill rate in % after 5d ([1]; 500 g/ha): 90%

Cc1ccc(-c2ccc(F)cc2)cc1-c1c(O)n2n(c1=O)CCOCC2 [Example I-2-a-6]
Kill rate in % after 7d ([4]; 500 g/ha): 100%

Cc1ccc(-c2ccc(Cl)c(Cl)c2)cc1-c1c(O)n2n(c1=O)CCOCC2 [Example I-2-a-13]
Kill rate in % after 7d [2]: 100%

Cc1ccc(-c2cccc([N+](=O)[O-])c2)cc1-c1c(O)n2n(c1=O)CCOCC2 [Example I-2-a-26]
Kill rate in % after 7d [2]: 100%
